Data on one substance can be found in patent US11274132B2, “Combined preparations of PKM2 modulators and HMGB1” (Ruprecht-Karls-Universität Heidelberg, priority 2015, dated 2022).

The subject of one test is SW480 xenograft tumor. The experiment in a line: Xenograft tumor growth in nude mice. The class given is in vivo, mouse. As to conditions: 10 μg rhHMGB1 daily intraperitoneal for 2 weeks. The protocol: For animal studies six-week-old female and male athymic CD1 nude mice (Charles River, n=40) were injected subcutaneously with 5×10^6 SW480 or HT29 cells in 100 μl PBS in the right flank using a 30-gauge needle. Treatment was started when tumors were palpable. Daily intraperitoneal injections at the contralateral side for 2 weeks were done with 10 μg rhHMGB1 in 500 μl PBS or PBS only (control group) and/or 12.5 mg/kg/injection L-DON (Ovejera, A. A., Houchens, D. P., Catane, R., Sheridan, M. A. & Muggia, F. M. Efficacy of 6-diazo-5-oxo-L-norleucine and N-[N-gamma-glutamyl-6-diazo-5-oxo-norleucinyl]-6-diazo-5-oxo-norleucine against experimental tumors in conventional and nude mice. Cancer research 39, 3220-3224 (1979).). Tumor volume was measured by a calliper using the ellipsoid formula (length×width×height×½) as described (Tomayko, M. M. & Reynolds, C. P. Determination of subcutaneous tumor size in athymic (nude) mice. Cancer Chemother Pharmacol 24, 148-154 (1989).). After 2 weeks of treatment the animals were sacrificed.

For test [1], the target named is T1, PKM2 (Homo sapiens, UniProt P14618). The test is described as follows: Immunoprecipitation with 125I-labeled HMGB1 (PKM2 pull-down). The class given is binding. Set-up: endogenous in cells. As to conditions: 125I-labeled HMGB1. The protocol: FIG. 6: Co-administration of HMGB1 and an activator (A left and right) or an inhibitor (B) of PMK2 has a synergistic cytotoxic effect, as determined in the crystal violet cytotoxicity assay (assays were performed in duplicate, * indicates p<0.05). (C) Immunoprecipitation with I125-labeled HMGB1 (PKM2 pull-down). HMGB1, like phosphotyrosine-peptides, binds close to the allosteric center of PKM2, leading to a competition in binding.

Test [2] has as its target T1, PKM2. The experiment in a line: Ultrafiltration of the PK M2-HMGB1 complex. The class given is binding. Particulars: 2 μM human PK M2 and 2 μM human HMGB1. The protocol:
Ultrafiltration of the PK M2-HMGB1 complex: equimolar amounts of HMGB1 and PKM2 were mixed in a final volume of 300 μl and filtrated (14000 g, 4° C.) to a final volume of 15 μl in an Amicon Ultra 0.5 ml 30k device (Merck-Millipore, Darmstadt, Germany). The retentate was adjusted to the original volume after centrifugation. Then filtrate and retentate were analyzed by Western Blot. For controls HMGB1 and PKM2 were also analyzed alone. Pure HMGB1 (2 μM) suited as a negative control.

Test [3] has as its system glucose flux (glycolysis). The test is described as follows: Glycolysis: conversion of 5-3H-Glucose to 3H2O. Type of test: cell-based, human. Particulars: HMGB1 80 nM, 24 h. The protocol:
Lactate derived from the metabolism of ^13C6-D-glucose or ^13C5-glutamine was determined by comparing the CH3 group intensities of labeled and non-labeled lactate in NMR. Mitochondrial respiration was measured using an Oroboros 1 oxygraph system. Glycolysis was measured by monitoring the conversion of 5-^3H-Glucose to ^3H2O. Incorporation of ^14C into RNA ribose from U-^14C-labelled glucose was taken as glucose utilization in the pentose phosphate shunt. Enzymatic activities were determined in subcellular fractions as previously described^24.

Test [4] has as its system cytochrome c oxidase (COX). The test is described as follows: Respiratory chain complex activities in mitochondrial fractions. The class given is cell-based, human. The protocol: (§1) Enzymatic activities of respiratory chain complexes, glycolytic proteins and malic enzyme were determined in subcellular fractions as previously described (Kaminski, M. M. et al. T cell activation is driven by an ADP-dependent glucokinase linking enhanced glycolysis with mitochondrial reactive oxygen species generation. Cell reports 2, 1300-1315 (2012).Bruncko, M. et al. Naphthamidine urokinase plasminogen activator inhibitors with improved pharmacokinetic properties. Bioorganic & medicinal chemistry letters 15, 93-98, (2005)) using a computer-tuneable spectrophotometer (Spectramax Plus Microplate Reader, Molecular Devices; Sunny Vale, Calif., USA) operating in the dual wavelength mode; samples were analyzed in temperature-controlled 96-well plates in a final volume of 300 μl. Activity of ME1 was recorded in presence of increasing amounts of malic acid (0.02, 0.05, 0.1, 0.2, 0.5, 1, 2.5 mM). Vmax and Km were calculated using a Hanes-Woolf plot. In the presence of high substrate levels the Km for malic acid was similar in all three tested cell lines (SW480: 0.32 mM, HCT116: 0.30 mM, HT29: 0.31 mM). Vmax (mU/mg protein) values were 3.38 (SW480, 0.5-5.0 mM malic acid), 5.77 (HCT116, 0.5-5.0 mM malic acid) and 3.68 (HT29, 0.5-5.0 mM malic acid) and 1.68 (SW480, 0.02-0.2 mM malic acid), 3.24 (HCT116, 0.02-0.2 mM malic acid) and 1.89 (HT29, 0.02-0.2 mM malic acid). Two isoforms of ME1, mitochondrial (NAD(P)+dependent) ME3 and mitochondrial (NAD+dependent) ME2, had very low or no detectable activities (data not shown).
(§2) Cells were lysed in lysis buffer P (20 mM Tris-HCl (pH 7.4), 137 mM NaCl, 10% (v/v) glycerine, 1% Triton X-100, 2 mM EDTA, 100 mM phenylmethylsulfonyl fluoride and protease inhibitors (Complete mini from Roche). Lysates were centrifuged at 14,000×g (10 min) at 4° C. Total protein was measured by the Bradford (Bio-Rad) method. Soluble protein was resolved by SDS-PAGE, blotted onto nitrocellulose and incubated with one of the following antibodies: mouse monoclonal anti-β-actin (1:3,000, Sigma-Aldrich), rabbit anti PK M2 (1:1,000, Cell Signaling), rabbit anti-malic enzyme 1 (1:1,000, abcam). Appropriate secondary antibodies (1:3,000, horse-radish peroxidase-conjugated) were from Bio-Rad. Visualization was done by enhanced chemiluminescence technique (GE-Healthcare). Mitochondrial fractions were extracted using the ApoAlert Cell Fractionation Kit (Clontech) as described earlier (Gdynia, G. et al. BLOC1S2 interacts with the HIPPI protein and sensitizes NCH89 glioblastoma cells to apoptosis. Apoptosis: an international journal on programmed cell death 13, 437-447, (2008)).

A further test has as its system complex I to III. The description is as above. As to conditions: colorectal cancer cell lines; HMGB1 80 nM, 24 h. Type of test: cell-based, human. The protocol: as §1, §2
The test system of a further test is complex II and III. The description is as above. As to conditions: HMGB1 80 nM, 24 h. Type of test: cell-based, human. The protocol:
as §1, §2

T1 sequence (P14618 whole entry): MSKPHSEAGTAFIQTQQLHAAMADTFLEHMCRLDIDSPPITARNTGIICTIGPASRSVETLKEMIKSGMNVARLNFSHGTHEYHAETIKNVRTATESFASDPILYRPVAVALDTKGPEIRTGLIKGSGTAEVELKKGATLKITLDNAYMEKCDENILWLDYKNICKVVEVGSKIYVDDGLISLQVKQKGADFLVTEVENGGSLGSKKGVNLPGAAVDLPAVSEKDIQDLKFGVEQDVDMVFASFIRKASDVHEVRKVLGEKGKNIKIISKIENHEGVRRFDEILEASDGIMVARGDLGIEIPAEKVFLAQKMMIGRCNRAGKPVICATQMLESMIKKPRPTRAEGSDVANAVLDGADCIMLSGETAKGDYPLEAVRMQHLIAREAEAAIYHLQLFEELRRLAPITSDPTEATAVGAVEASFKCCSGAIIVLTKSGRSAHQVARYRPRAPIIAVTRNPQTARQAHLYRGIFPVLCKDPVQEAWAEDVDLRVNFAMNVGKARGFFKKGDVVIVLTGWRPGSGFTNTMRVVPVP

In the case of “HMGB1: recombinant human HMGB1 protein (Sigma-Aldrich); High Mobility Group Box 1 polypeptide, human, SEQ ID NO: 4”, the xenograft tumor growth result in the test on SW480 xenograft tumor is recorded as “inhibited”. For the same substance, the “binding to PKM2 in vivo (immunoprecipitating PKM2)” value with PKM2 [1] was “specific binding”. In the test with PKM2 [2], the “physical interaction with PK M2 in vitro” value is given as “physically interacted”. Moreover, the “glucose flux (5-3H-glucose turn-over)” value in test [3] is reported as “reduced at the enolase reaction step”. Moreover, the COX activity result in test [4] (colorectal cancer cell lines, HMGB1 80 nM, 24 h) was “significantly lower activity levels”; in test [4] (primary tumor tissue slices, HMGB1 160 nM, 72 h), “potent inhibition”. In addition, in the test on complex I to III, the “electron flow from complex I to III” value is on record as “unchanged”. Moreover, the “coupled complex II and III activity” value in the test on complex II and III (HCT116) was “maintained or even upregulated”; in the test on complex II and III (HT29), “maintained or even upregulated”; in the test on complex II and III (SW480), “decreased”.
